This assay relates to HEK293T cells. In words: HDAC6 overexpression model in HEK293T cells, Western blot. The format is cell-based, human. The note with it: 500 nM MARB1, 48 h. How it is done:
However, it is mention worth that MARB1 increases the amount of acetylated tubulin in cells with HDAC6 overexpression. 400,000 cells were seeded on a 6 well plate and incubated for 24 h for adapting and the transfection was allowed for 48 h. […] HSP90 and Tubulin were used as loading control. The cells were collected on ice using Trypsin/EDTA. The overexpression was identified by using the HDAC6 antibody described in Antibodies and Plasmids. n=3 (B) The cells were transfected as described previously and collected under sterile conditions using Trypsin/EDTA. Cells were centrifuged and resuspended in new DMEM with FBS and pen/strep. The cells were splitted 1:2 and seeded per sample into two wells. After 24 h adhesion time cells were stimulated with MARB1 for 48 h. Thereafter cells were collected on ice using Trypsin/EDTA and prepared for SDS-PAGE. […] The samples were generated as described previously. HSP90 was used as loading control. n=1 […]
Western Blot analysis method b was used for the blots illustrated in FIGS. 6 to 9 and 11: Equal amounts of proteins were separated with a sodium dodecyl sulfate-polyacrylamide gel electrophoresis (SDS-PAGE) using an electrophoresis buffer by Laemmli with 1% SDS. […] Fluorescence coupled secondary antibodies (LI-COR) were used and the signal was measured on the Odyssey to detect the proteins. […]
A general note: Immunoblotting shows a protein as a band on a membrane.

The record followed here is patent publication US10106540B2, “HDAC6 inhibitors and their uses” (Universität Regensburg, priority 2014, dated 2018).

With `CN1C(=O)C2CN(Cc3c2c2ccccc2n3Cc2ccc(C(=O)NO)cc2)C1=O` (stereo not shown) [MARB1, N-Hydroxy-4-((4-methyl-3,5-dioxo-3,4,5,6-tetrahydro-2,6-methano[1,3]diazocino[5,6-b]indol-11(1H)-yl)methyl)benzamide], the “tubulin acetylation in HDAC6 flag transfected cells” value is on record as “high induction of tubulin acetylation”.
